Assays:
Test in all cases: chimeric receptor transactivation assay
Type in all cases: cell-based
Details in all cases: value in parentheses
RARγ = target: T1, RARγ (Homo sapiens, UniProt P13631)
T1 sequence (P13631 185-419 limits assumed): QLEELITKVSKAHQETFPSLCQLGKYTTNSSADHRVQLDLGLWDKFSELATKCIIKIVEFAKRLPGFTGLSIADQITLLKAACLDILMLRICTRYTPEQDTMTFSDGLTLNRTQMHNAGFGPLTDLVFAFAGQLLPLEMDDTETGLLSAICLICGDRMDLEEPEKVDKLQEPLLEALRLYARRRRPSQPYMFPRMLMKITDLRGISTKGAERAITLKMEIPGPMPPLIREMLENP
Text: (§1) Assays described below measure the ability of a compound to bind to, and/or activate various retinoid receptor subtypes. When in these assays a compound binds to a given receptor subtype and activates the transcription of a reporter gene through that subtype, then the compound is considered an agonist of that receptor subtype. […] In the below described assays the ability of the compounds to bind to RARα, RARβ, RARγ, RXRα, RXRβ and RXRγ receptors, and the ability or inability of the compounds to activate transcription of a reporter gene through these receptor subtypes can be tested.
(§2) As far as specific assays are concerned, a chimeric receptor transactivation assay which tests for agonist-like activity in the RARα, RARβ, and RARγ, receptor subtypes, and which is based on work published by Feigner P. L. and Holm M (1989) Focus, 112 is described in detail in U.S. Pat. No. 5,455,265. The specification of U.S. Pat. No. 5,455,265 is hereby expressly incorporated by reference. The numeric results obtained with several preferred compounds of this invention in this assay are shown below in Table 1.
(§3) A holoreceptor transactivation assay and a ligand binding assay which measure the antagonist/agonist like activity of the compounds of the invention, or their ability to bind to the several retinoid receptor subtypes, respectively, are described in published PCT Application No. WO WO93/11755 (particularly on pages 30-33 and 37-41) published on Jun. 24, 1993, the specification of which is also incorporated herein by reference. A detailed experimental procedure for holoreceptor transactivations has been described by Heyman et al. Cell 68, 397-406, (1992); Allegretto et al. J. Biol. Chem. 268, 26625-26633, and Mangelsdorf et al. The Retinoids: Biology, Chemistry and Medicine, pp 319-349, Raven Press Ltd., New York, which are expressly incorporated herein by reference. The results obtained in this assay are expressed in EC50 numbers, as they are also in the chimeric receptor transactivation assay. The results of ligand binding assay are expressed in Kd numbers. (See Cheng et al. Biochemical Pharmacology Vol. 22 pp 3099-3108, expressly incorporated herein by reference.)

RARα = target: T2, RARα (Homo sapiens, UniProt P10276)
T2 sequence (P10276 183-417 limits assumed): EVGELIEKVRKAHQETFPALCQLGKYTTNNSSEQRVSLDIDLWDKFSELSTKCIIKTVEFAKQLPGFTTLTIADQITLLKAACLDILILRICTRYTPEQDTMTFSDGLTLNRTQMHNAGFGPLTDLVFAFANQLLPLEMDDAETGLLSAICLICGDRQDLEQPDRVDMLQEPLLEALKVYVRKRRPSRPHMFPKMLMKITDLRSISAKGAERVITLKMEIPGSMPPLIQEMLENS
Text: as §1, §2, §3

RARβ = target: T3, RARβ (Homo sapiens, UniProt P10826)
T3 sequence (P10826 183-417 limits assumed): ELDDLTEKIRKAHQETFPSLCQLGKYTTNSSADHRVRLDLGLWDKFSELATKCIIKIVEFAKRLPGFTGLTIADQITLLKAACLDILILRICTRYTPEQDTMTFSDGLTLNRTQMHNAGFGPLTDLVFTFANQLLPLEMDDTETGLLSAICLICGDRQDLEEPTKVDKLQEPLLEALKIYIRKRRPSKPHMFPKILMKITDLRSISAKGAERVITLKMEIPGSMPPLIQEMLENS
Text: as §1
as §2, with “reference.” for “reference. The numeric results obtained with several preferred compounds of this invention in this assay are shown below in Table 1.”
as §3, with “A detailed experimental procedure for holoreceptor transactivations has been described by Heyman et al. Cell 68, 397-406, (1992); Allegretto et al. J. Biol. Chem. 268, 26625-26633, and Mangelsdorf et al. The Retinoids: Biology, Chemistry and Medicine, pp 319-349, Raven Press Ltd., New York, which are expressly incorporated herein by reference.” left out

Row | SMILES | RAR (EFFICACY) γ (RARγ) | RAR (EFFICACY) α (RARα) | RAR (EFFICACY) β (RARβ)
1 | CN(C1CC1)C1CCC(C)(C)c2cc(C#Cc3ccc(C(=O)O)cc3)ccc21 (centres unmarked) [Compound 3, 4-[(5-Cyclopropyl-methyl-amino)-8,8-dimethyl-5,6,7,8-tetrahydro-naphthalene-2yl-ethynyl]-benzoic acid] | (52) | (28) | (54)
2 | CC1(C)CCC(=O)c2ccc(C#Cc3ccc(CC(=O)O)cc3)cc21 [Compound 5, 4-[(8,8-Dimethyl-5-oxo-5,6,7,8-tetrahydro-naphthalene-2-yl-ethynyl)-phenyl]-acetic acid] | – | – | (36)
3 | CN(C1CC1)C1CCC(C)(C)c2cc(C#Cc3ccc(CC(=O)O)cc3)ccc21 (centres unmarked) [Compound 8, 4-[(5-(Cyclopropyl-methyl-amino)-8,8-dimethyl-5,6,7,8-tetrahydro-naphthalene-2-yl-ethynyl)-phenyl]-acetic acid] | – | – | (96)
4 | CC1(C)CCC(=O)c2ccc(C#Cc3ccc(C(=O)O)c(F)c3)cc21 [Compound 10, 2-Fluoro-4-(8,8-dimethyl-5-oxo-5,6,7,8-tetrahydro-naphthalen-2yl-ethynyl)-benzoic acid] | (94) | (146) | (86)
5 | CN(C1CC1)C1CCC(C)(C)c2cc(C#Cc3ccc(C(=O)O)c(F)c3)ccc21 (centres unmarked) [Compound 13, 4-[5-(Cyclopropyl-methyl-amino)-8,8-dimethyl-5 6,7,8-tetrahydro-naphthalene-2-yl-ethynyl]-2-fluoro benzoic acid] | (9) | – | (6.6)
6 | CC1(C)CC2(CC2)Oc2ccc(C#Cc3ccc(C(=O)O)cc3)cc21 [Compound 40, Benzoic acid 4-[(3,4-dihydro-4,4-dimethylspiro[2H-1-benzopyran-2,1′-cyclopropane]-6-yl)ethynyl]-] | (140) | (207) | (126)
7 | CC1(C)CC2(CC2)Oc2ccc(C#Cc3ccc(C(=O)O)c(F)c3)cc21 [Compound 44, 2-Fluoro-benzoic acid, 4-[(3,4-dihydro-4,4-dimethylspiro[2H-1-benzopyran-2,1′-cyclopropane]-6-yl)ethynyl]-] | (116) | (138) | (100)
8 | COC1(c2ccc(C#Cc3ccc(C(=O)O)cc3)cc2)CC1 [Compound 69, 4-[4-(1-Methoxycyclopropyl)-phenylethynyl]-benzoic acid] | (31) | (10) | (50)
9 | CC(C)OC1(c2ccc(C#Cc3ccc(C(=O)O)cc3)cc2)CC1 [Compound 73, 4-[4-(1-Isopropoxycyclopropyl)-phenylethynyl]-benzoic acid] | (24) | – | (39)
10 | Cc1cc(C#Cc2ccc(C(=O)O)cc2)ccc1C1(OCc2ccccc2)CC1 [Compound 81, 4-[4-(l -Benzyloxycyclopropyl)-3-methyl-phenylethynyl]-benzoic acid] | (67) | – | (80)
11 | Cc1cc(C#Cc2ccc(C(=O)O)cc2)ccc1C1(OC(C)C)CC1 [Compound 85, 4-[4-(1-Isopropoxycyclopropyl)-3-methyl-phenylethynyl]-benzoic acid] | (65) | (60) | (77)
12 | Cc1cc(C#Cc2ccc(C(=O)O)cc2)ccc1C1(OCC(C)(C)C)CC1 [Compound 89, 4-[4-[1-(2,2-Dimethylpropyloxy)-cyclopropyl]-3-methyl-phenylethynyl]-benzoic acid] | (46) | (20) | (50)
13 | CCc1cc(C#Cc2ccc(C(=O)O)cc2)ccc1C1(OCc2ccccc2)CC1 [Compound 93, 4-[4-(1-Benzyloxycyclopropyl)-3-ethyl-phenylethynyl]-benzoic acid] | (55) | (114) | (39)
14 | CCCNC1(c2ccc(C#Cc3ccc(C(=O)O)cc3)cc2)CC1 [Compound 108, 4-[4-(1-Propylamino-cyclopropyl)-phenylethynyl]-benzoic acid] | (10) | (15) | (36)
15 | CCCN(CCC)C1(c2ccc(C#Cc3ccc(C(=O)O)cc3)cc2)CC1 [Compound 110, 4-[4-(1-Dipropylamino-cyclopropyl)-phenylethynyl]-benzoic acid] | (42) | – | (44)
16 | O=C(O)c1ccc(C#Cc2ccc(C3(NCc4ccccc4)CC3)cc2)cc1 [Compound 112, 4-[4-(1-Benzylamino-cyclopropyl)-phenylethynyl]-benzoic acid] | – | – | (37)
